According to paper PMC4167698, “Fatty Acid Esters of Phloridzin Induce Apoptosis of Human Liver Cancer Cells through Altered Gene Expression” (PLoS ONE, 2014):
Each block holds one compound with its values, some of them ahead of it.

Legend:
HepG2 cells [1] = experiment: MTS cell proliferation assay, HepG2; assay type: cell-based, human; details: for SI (selective index): EC50 of HP-F cells/EC50 on HepG2, 24 h; for EC50: MTS
Method: (§1) Cell viability was determined by using the MTS assay. In brief, HepG2 cells (5×10^3 cells/100 µL/well), MDA-MB-231 (5×10^3 cells/100 µL/well), THP-1 (25×10^3/100 µL/well), normal human and rat hepatocytes (1×10^4 cells/100 µL/well) were plated in triplicate, in a 96 well sterile flat bottom tissue culture plates. […] Thereby, cells were exposed to various concentrations (0.1, 1, 10, 25, 50, 75, 100 µM) of each treatment. Controls consist of cells with media containing DMSO (<0.5%), test blank wells contained the test compound in media with no cells and blank wells contained media with no cells. After additional 3, 6, 12, 18 or 24 h, 20 µL of the MTS reagent in combination with the electron coupling agent, phenazine methosulfate were added to the wells and cells were incubated in a humidified incubator for 3 h. Absorbance at 490 nm (OD490) was measured by using a Flurostar Optima microplate reader (BMG Labtech, Cary, NC, USA) to obtain the number of viable cells relative to the control population. Percentage of viability of the test compound treated cells are expressed as percentage compared to control (<0.5% DMSO). […] The selective index (SI) of the fatty acid esters of phloridzin is defined as the ratio of cytotoxicity (EC50 values) on normal HP-F cells to solid cancer HepG2, MDA-MB-231 cells (SI = EC50 on HP-F cells/EC50 on solid cancer cells). Samples with SI values greater than three were considered to have high selectivity towards cancer cells.

MDA-MB-231 cells = experiment: MTS cell proliferation assay, MDA-MB-231; assay type: cell-based, human; details: for SI (selective index): EC50 of HP-F cells/EC50 on MDA-MB-231, 24 h; for EC50: MTS
Method: as §1

THP-1 cells = experiment: MTS cell proliferation assay, THP-1; assay type: cell-based, human; details: for EC50: MTS
Method: as §1

[2] = tested on: normal human hepatocytes (HP-F); experiment: MTS cell viability assay, normal human hepatocytes; assay type: cell-based; details: 24 h
Method: as §1

HepG2 cells [3] = experiment: Human cancer drug targets RT2 profiler PCR array; assay type: cell-based
Method: Total RNA extraction was performed using Arum Total RNA minikit (Bio-Rad, Hercules, CA, USA). RNA concentration and purity was determined by measuring the absorbance using a NanoDrop (NanoDrop Technologies, Wilmington, DE, USA). RNA integrity was assessed by formaldehyde agarose gel electrophoresis. RNA (400 ng) was used to synthesize cDNA using RT^2 First Strand kit (SABiosciences, Frederick, MD, USA). RT^2 RNA QC PCR arrays (SABiosciences, Frederick, MD, USA) was used to assess the quality of cDNA samples before characterization with the human cancer drug targets RT^2 profiler PCR array (SABiosciences, Frederick, MD, USA). Gene expression profiles of 84 genes were investigated using the human cancer drug targets RT^2 profiler PCR array (PAHS-507ZD) on a Bio-Rad CFX Connect (Bio-Rad, Hercules, CA, USA) using RT^2 real-time SYBR green PCR master mix (SABiosciences, Frederick, MD, USA). […] Reproducibility was maintained by using three biological replicates from three individual experiments.

HepG2 cells [4] = experiment: LDH release cytotoxicity assay; assay type: cell-based, human; details: HepG2, 100 µM, 6 h, relative to maximum release by 1% Triton X-100
Method: Lactate dehydrogenase (LDH) is a stable cytosolic enzyme that is released upon membrane damage in apoptotic/necrotic cells. LDH activity was measured using CytoTox 96 Non-Radioactive Cytotoxicity Assay (Promega, Madison, WI, USA), in which LDH released in culture supernatants is measured with a coupled enzymatic assay, resulting in conversion of a tetrazolium salt into a red formazan product. […] After centrifugation, the supernatant was removed to an assay plate, and the LDH released from the cells into culture medium was measured. The maximal release was obtained after treating control cells with 1% Triton X-100 for 30 min at room temperature. The apoptotic/necrotic percentage was expressed using the formula: (sample value/maximal release)×100%.

[5] = 84-gene array, vs vehicle control

EC50 (HepG2 cells [1]; HepG2, 3 h): 76.9 ± 5.8 µM
EC50 (HepG2 cells [1]; HepG2, 6 h): 64.4 ± 5.9 µM
EC50 (HepG2 cells [1]; HepG2, 12 h): 56.2 ± 4.9 µM
EC50 (HepG2 cells [1]; HepG2, 18 h): 54.2 ± 3.9 µM
EC50 (HepG2 cells [1]; HepG2, 24 h): 51.9 ± 3.8 µM
EC50 (MDA-MB-231 cells; MDA-MB-231, 3 h): 132 ± 9.9 µM
EC50 (MDA-MB-231 cells; MDA-MB-231, 6 h): 83.7 ± 7.5 µM
EC50 (MDA-MB-231 cells; MDA-MB-231, 12 h): 70.2 ± 6.1 µM
EC50 (MDA-MB-231 cells; MDA-MB-231, 18 h): 62.6 ± 5.1 µM
EC50 (MDA-MB-231 cells; MDA-MB-231, 24 h): 55.5 ± 4.5 µM
EC50 (THP-1 cells; THP-1, 3 h): 65.8 ± 5.2 µM
EC50 (THP-1 cells; THP-1, 6 h): 49.5 ± 3.8 µM
EC50 (THP-1 cells; THP-1, 12 h): 42.7 ± 3 µM
EC50 (THP-1 cells; THP-1, 18 h): 35.8 ± 2.8 µM
EC50 (THP-1 cells; THP-1, 24 h): 27.3 ± 1.2 µM
SMILES: CC/C=C\C/C=C\C/C=C\C/C=C\C/C=C\C/C=C\CCC(=O)OC[C@H]1O[C@@H](Oc2cc(O)cc(O)c2C(=O)CCc2ccc(O)cc2)[C@H](O)[C@@H](O)[C@@H]1O [Pz-DHA ester, DHA ester of Pz]
SI (selective index) (HepG2 cells [1]): 11.2
SI (selective index) (MDA-MB-231 cells): 10.5
SI (selective index) (THP-1 cells; EC50 of HP-F cells/EC50 on THP-1, 24 h): 21.3
EC50 [2]: > 100 µM
number of genes down-regulated (more than two-fold) (HepG2 cells [3]; [5]): 41 genes
number of genes unaffected (HepG2 cells [3]; [5]): 35 genes
number of genes up-regulated (more than two-fold) (HepG2 cells [3]; [5]): 8 genes
Fold change of gene expression relative to control: BCL2 (HepG2 cells [3]; Apoptosis gene, RT-PCR array): −2.8 fold
Fold change of gene expression relative to control: AKT1 (HepG2 cells [3]; RT-PCR array): −6.1 fold
Fold change of gene expression relative to control: AKT2 (HepG2 cells [3]; RT-PCR array): −2.8 fold
Fold change of gene expression relative to control: AURKB (HepG2 cells [3]; RT-PCR array): −2.0 fold
Fold change of gene expression relative to control: CDK2 (HepG2 cells [3]; RT-PCR array): −2.0 fold
Fold change of gene expression relative to control: CDK9 (HepG2 cells [3]; RT-PCR array): −2.1 fold
Fold change of gene expression relative to control: EGFR (HepG2 cells [3]; RT-PCR array): −8.9 fold
Fold change of gene expression relative to control: ERBB2 (HepG2 cells [3]; RT-PCR array): −5.7 fold
Fold change of gene expression relative to control: ERBB3 (HepG2 cells [3]; RT-PCR array): −6.1 fold
Fold change of gene expression relative to control: FLT1 (HepG2 cells [3]; RT-PCR array): 16.5 fold
Fold change of gene expression relative to control: GRB2 (HepG2 cells [3]; RT-PCR array): −8.6 fold
Fold change of gene expression relative to control: HDAC1 (HepG2 cells [3]; RT-PCR array): −2.6 fold
Fold change of gene expression relative to control: HDAC4 (HepG2 cells [3]; RT-PCR array): −4.1 fold
Fold change of gene expression relative to control: HDAC6 (HepG2 cells [3]; RT-PCR array): −5.4 fold
Fold change of gene expression relative to control: HDAC7 (HepG2 cells [3]; RT-PCR array): −6.0 fold
Fold change of gene expression relative to control: HDAC11 (HepG2 cells [3]; RT-PCR array): −20.1 fold
Fold change of gene expression relative to control: IGF1R (HepG2 cells [3]; RT-PCR array): −4.2 fold
Fold change of gene expression relative to control: IGF2 (HepG2 cells [3]; RT-PCR array): −2.3 fold
Fold change of gene expression relative to control: IRF5 (HepG2 cells [3]; RT-PCR array): −2.3 fold
Fold change of gene expression relative to control: KDR (HepG2 cells [3]; RT-PCR array): −2.8 fold
Fold change of gene expression relative to control: KRAS (HepG2 cells [3]; RT-PCR array): −4.0 fold
Fold change of gene expression relative to control: MDM4 (HepG2 cells [3]; RT-PCR array): −2.1 fold
Fold change of gene expression relative to control: NF−κB (HepG2 cells [3]; RT-PCR array): −4.3 fold
Fold change of gene expression relative to control: PARP1 (HepG2 cells [3]; RT-PCR array): −5.4 fold
Fold change of gene expression relative to control: PDGFRA (HepG2 cells [3]; RT-PCR array): −2.8 fold
Fold change of gene expression relative to control: PDGFRB (HepG2 cells [3]; RT-PCR array): −16.8 fold
Fold change of gene expression relative to control: PIK3C2A (HepG2 cells [3]; RT-PCR array): −2.2 fold
Fold change of gene expression relative to control: PLK1 (HepG2 cells [3]; RT-PCR array): −2.9 fold
Fold change of gene expression relative to control: PRKCA (HepG2 cells [3]; RT-PCR array): −8.1 fold
Fold change of gene expression relative to control: PRKCD (HepG2 cells [3]; RT-PCR array): −2.1 fold
Fold change of gene expression relative to control: PRKCE (HepG2 cells [3]; RT-PCR array): −5.6 fold
Fold change of gene expression relative to control: TERT (HepG2 cells [3]; RT-PCR array): −5.6 fold
Fold change of gene expression relative to control: TOP2A (HepG2 cells [3]; RT-PCR array): −2.7 fold
Fold change of gene expression relative to control: TOP2B (HepG2 cells [3]; RT-PCR array): −2.3 fold
Fold change of gene expression relative to control: TP53 (HepG2 cells [3]; RT-PCR array): −7.4 fold
Fold change of gene expression relative to control: mTOR (HepG2 cells [3]; RT-PCR array): −3.6 fold
Fold change of gene expression relative to control: FLT1 (HepG2 cells [3]; RT-PCR array, listed as Phloridzin-DHA): +16.5 fold

EC50 (HepG2 cells [1]; HepG2, 3 h): 39.4 ± 2.8 µM
EC50 (HepG2 cells [1]; HepG2, 6 h): 37.8 ± 1.9 µM
EC50 (HepG2 cells [1]; HepG2, 12 h): 36 ± 2.1 µM
EC50 (HepG2 cells [1]; HepG2, 18 h): 33.1 ± 2.4 µM
EC50 (HepG2 cells [1]; HepG2, 24 h): 26.8 ± 1.8 µM
EC50 (MDA-MB-231 cells; MDA-MB-231, 3 h): 37.9 ± 2.2 µM
EC50 (MDA-MB-231 cells; MDA-MB-231, 6 h): 33.6 ± 1.8 µM
EC50 (MDA-MB-231 cells; MDA-MB-231, 12 h): 32.6 ± 1.8 µM
EC50 (MDA-MB-231 cells; MDA-MB-231, 18 h): 31.5 ± 2.3 µM
EC50 (MDA-MB-231 cells; MDA-MB-231, 24 h): 26.5 ± 1.1 µM
EC50 (THP-1 cells; THP-1, 3 h): 27.9 ± 1.5 µM
EC50 (THP-1 cells; THP-1, 6 h): 19.9 ± 1.1 µM
EC50 (THP-1 cells; THP-1, 12 h): 17 ± 0.6 µM
EC50 (THP-1 cells; THP-1, 18 h): 15.8 ± 0.8 µM
EC50 (THP-1 cells; THP-1, 24 h): 14.8 ± 0.6 µM
SMILES: CC/C=C\C/C=C\C/C=C\C/C=C\C/C=C\CCCC(=O)OC[C@H]1O[C@@H](Oc2cc(O)cc(O)c2C(=O)CCc2ccc(O)cc2)[C@H](O)[C@@H](O)[C@@H]1O [Pz-EPA ester, eicosapentaenoic acid ester (EPA) of Pz]
SI (selective index) (HepG2 cells [1]): 7.4
SI (selective index) (MDA-MB-231 cells): 7.5
EC50 [2]: > 100 µM
LDH release (HepG2 cells [4]): 82.7±1.5%
